Data on 4 molecules can be found in US9827187B2, “Filaggrin gene expression promoter” (Shiseido Company, Ltd., priority 2012, dated 2017).

The subject of assay [1] is filaggrin gene. Put plainly: Filaggrin gene expression promotion by 1PP, zanthoxylum extract and their combination (QPCR, cultured keratinocytes). To be noted: agent at 0.1% in medium (combination: 0.1% each); keratinocytes collected after 18 hours; versus no-agent control; FIG. 4. Type of assay: cell-based, human.
Protocol: Commercially available normal adult skin-derived keratinocytes (Cellntec AG) were disseminated in a culture plate to a concentration of 3×10^3 cells/cm^2 followed by culturing in epithelial cell medium (CnT-BM.1, Cellntec AG) at 37° in a 5% CO2 atmosphere. […] The absence of addition of pharmaceutical agent was used as a control.
RNA was extracted from the collected cells using a commercially available RNA extraction-cDNA synthesis kit (FastLane Cell cDNA Kit, Qiagen N.V.) to prepare cDNA. Filaggrin expression levels were measured by quantitative PCR (QPCR) using this cDNA. A commercially available QPCR reagent kit (Brilliant III Ultra-Fast SYBR Green QPCR Kit, Agilent Technologies Inc.) and QPCR measurement system (MX-3000P Real-time Quantitative PCR System, Agilent Technologies Inc.) were used for QPCR. The expression level of a housekeeping gene in the form of RPLP0 gene was quantified for use as an internal standard, and the relative expression level with respect to PLP0 was calculated and used as the expression level of filaggrin gene. The primer sequences shown in Table 1 were used for the sequences of the PCR primers.
Assay [2] concerns filaggrin gene. The experiment in a line: Screening pharmaceutical agents that promote filaggrin gene expression (QPCR, cultured keratinocytes). To be noted: candidate agent at 1% in medium; normal adult skin-derived keratinocytes; 18 hours after addition; relative to RPLP0; FIG. 3. It counts as cell-based, human. The method, then: Commercially available normal adult skin-derived keratinocytes (Cellntec AG) were disseminated in a culture plate to a concentration of 3×10^3 cells/cm^2 followed by culturing in epithelial cell medium (CnT-BM.1, Cellntec AG) at 37° in a 5% CO2 atmosphere. Three days later, the medium was replaced with medium containing each of the candidate pharmaceutical agents at a concentration of 1% followed by continuing culturing at 37° C. and 5% CO2 and collecting the cells after 2 hours and after 18 hours. The candidate pharmaceutical agents added to the medium consisted of zanthoxylum extract (Maruzen Pharmaceuticals Co., Ltd.), geranium oil (Koei Kogyo Co., Ltd.), cypress oil (Bioland Co., Ltd.), rose oil (Bioland Co., Ltd.), galvanum oil (Bioland Co., Ltd.), pepper oil (Bioland Co., Ltd.), basil oil (Bioland Co., Ltd.), methyl-o-toluate (Aldrich Inc.), methyl anthranilate (Tokyo Chemical Industry Co., Ltd.), dimethyl anthranilate (Tokyo Chemical Industry Co., Ltd.), clove bud caryophyllata oil (Bioland Co., Ltd.) and arnica oil (Koei Kogyo Co., Ltd.). The absence of addition of pharmaceutical agent was used as a negative control, and cortisol (concentration in medium: 50 ng/mL) was used as a positive control.
RNA was extracted from the collected cells using a commercially available RNA extraction-cDNA synthesis kit (FastLane Cell cDNA Kit, Qiagen N.V.) to prepare cDNA. Filaggrin expression levels were measured by quantitative PCR (QPCR) using this cDNA. Expression levels of clock genes PER3 and BMAL1 were measured simultaneously and compared with the expression rhythm of filaggrin gene. A commercially available QPCR reagent kit (Brilliant III Ultra-Fast SYBR Green QPCR Kit, Agilent Technologies Inc.) and QPCR measurement system (MX-3000P Real-time Quantitative PCR System, Agilent Technologies Inc.) were used for QPCR. The expression level of a housekeeping gene in the form of RPLP0 gene was quantified for use as an internal standard, and the relative expression level with respect to PLP0 was calculated and used as the expression level of filaggrin gene. […]

Structures are written as SMILES.

On to `O=C(O)CCN1CCCCC1` [1PP, 3-(1′-piperidine)propionic acid], for which, in assay [1], the “effect of promoting filaggrin gene expression” value is recorded as “effect of promoting filaggrin gene expression that was comparable to that of zanthoxylum extract”. Consider `CNc1ccccc1C(=O)OC` [dimethyl anthranilate, 2-methyl aminomethylbenzoate], for which the “expression of filaggrin gene after 18 hours in comparison with the negative control” value in assay [2] is given as “promote expression of filaggrin gene”. Same read-out and setting: to `COC(=O)c1ccccc1N` [methyl anthranilate, methyl 2-aminobenzoate] belongs “promote expression of filaggrin gene”; to `COC(=O)c1ccccc1C` [methyl-o-toluate, methyl 2-methylbenzoate], “promote expression of filaggrin gene”.
